Laboratory results reported in patent US20110053914A1, “Pharmaceutical Combination Comprising 6-Dimethylaminomethyl-1-(3-methoxy-phenyl)-cyclohexane-1,3-diol or 6-Dimethylaminomethyl-1-(3-hydroxy-phenyl)-cyclohexane-1,3-diol and an Antiepileptic” (Gruenenthal GmbH, priority 2009, published 2011).
Where a name gives a salt, the structure may show the parent alone. Read-outs that look alike come from different tables or passages of the source.

Columns and labels:
Assay type in all cases: in vivo, rat
rats [1] = assay: Randall-Selitto test in rats (carrageenan inflammatory pain); conditions: for ED50: Rattus norvegicus, 0.25 h
Procedure: The weight ratios of the components (a) and (b) that will lead to a supra-additive effect (synergistic effect) of the inventive pharmaceutical composition may be determined via the test of Randall and Selitto as described in Arch. Int. Pharmacodyn., 1957, 111: 409 to 419, which is a model for inflammatory pain. The respective part of the literature is hereby incorporated by reference and forms part of the present disclosure.
Acute inflammation was induced by an intraplantar injection of 0.1 ml of a carrageenan solution (0.5% in distilled water) into one hind paw. The mechanical nociceptive threshold was measured 4 hours after carrageenan injection using an Algesiometer (Ugo Basile, Italy). The device generates a mechanical force with a linear increase over time. The force is applied to the dorsal surface of the inflamed rat hind paw via a cone-shaped stylus with a rounded tip (2 mm tip diameter). The nociceptive threshold is defined as the force (in grams) at which the rat vocalises (cut-off force 250 g). The mechanical nociceptive threshold is measured at different timepoints after the drug or vehicle administration. The antinociceptive and antihyperalgesic activity of the tested substance is expressed as percentages of the maximal possible effect (% MPE). The group size is n=10.
The interactions studies presented herein were performed using equieffective doses of the two components, calculated from the ratio of the respective ED50 values of the components if administered alone.
The application route was intravenous (i.v.) for Axomadol hydrochloride (A) and intraperitoneal (i.p.) for the anticonvulsants Lamotrigine, Lacosamide, Levetiracetam, Retigabine and Carbamazepine. […] According to their respective timepoint of peak effect, A was applied 15 min and the anticonvulsant component also 15 min before timepoint of measurement of the interaction-experiments (i.e. both components were applied simultaneously). Thus, the time point of ED50 calculation of the combination corresponds to the timepoint of the peak effect of the respective compound.

rats [2] = assay: Spinal nerve ligation (Chung model for mononeuropathic pain) in rats, anti-allodynic testing; conditions: 30 min after A; A 4 mg/kg iv; B 10 mg/kg iv 20 min before A or vehicle; tactile allodynia
Procedure: Under pentobarbital anaesthesia (Narcoren®, 60 mg/kg i.p., Merial GmbH, Hallbergmoos, FRG), the L5, L6 spinal nerves were tightly ligated (Kim and Chung, Pain 1992; 50: 355). The left L5 and L6 spinal nerves were exposed by removing a small piece of the paravertebral muscle and a part of the left spinous process of the L5 lumbar vertebra. The L5 and L6 spinal nerves were then carefully isolated and tightly ligated with silk (NC-silk black, USP 5/0, metric 1, Braun Melsungen AG, Melsungen, FRG). After checking hemostasis, the muscle and the adjacent fascia were closed with sutures and the skin was closed with sutures.
After operation, animals were allowed to recover for one week. Animals develop tactile allodynia which is stable for at least five weeks. […] Threshold for tactile allodynia was measured with an electronic von Frey anesthesiometer (Somedic, Sweden). […] The median of the withdrawal threshold for each animal at a given time is calculated from five individual stimulations with the electronic von Frey filament. Withdrawal thresholds of the injured paws are expressed as % maximal possible effect (% MPE) comparing predrug threshold of Chung-animals (=0% MPE) and control threshold of sham-animals (=100% MPE). […] The effect of each compound and vehicle is calculated for each testing time point (e.g. 0.5, 1, 3 h post administration) as interindividual % MPE value (±SEM). […]

male Sprague Dawley rats = assay: Paw incision model in rats (post-operative pain), electronic von Frey; conditions: intraperitoneal, at maximum effect; effective dose at 25% of the maximum effect; tactile hyperalgesia
Source text: The paw incision model (Brennan, T. J., Vandermeulen, E. P., Gebhart, G. F., Pain 64, (1996), 493-501) is an animal model of post-operative pain.
In male Sprague Dawley rats (body weight 180-200 g) a longitudinal incision of 1 cm length is made, starting 0.5 cm from the proximal end of the paw, through the skin and fascia. Using bent tweezers the muscle is lifted up from the bottom and incised lengthwise, flat and centered using a scalpel. The muscle is spreaded bluntly with the tweezers. Subsequently, the wound is closed with two sutures.
The tactile hyperalgesia two hours after the operation is determined using an electronic von Frey filament (Somedic Sales AB, Hörby, Sweden). […] In order to investigate the sensitivity to the mechanical stimulus, the paw retraction threshold is determined on the ipsilateral paw as well as in the same position on the untreated contralateral paw and is given in grams of the applied pressure. The retraction threshold per paw is measured four times and the median value is then determined. The retraction threshold of the ipsi- and contralateral paw is measured prior administration (pre-test value) and at several times after administration of a substance, namely (15, 30 and 60 minutes after administration). […]
From the median values the Maximum Positive Effect (% MPE) is determined according to the following formula: […]

[3] = ip, i.p., 15 min p. appl. (peak effect), read-out: ED50 [mg/kg] of the anticonvulsant alone

| Structure (SMILES) | ED50 (rats [1]; [3]) [mg/kg] | Time point of peak effect p. appl. (rats [1]; anticonvulsant alone, i.p.) [min] | also measured |
| --- | --- | --- | --- |
| COc1cccc([C@@]2(O)C[C@H](O)CC[C@@H]2CN(C)C)c1 (racemic) [A, (1RS,3RS,6RS)-6-dimethylaminomethyl-1-(3-methoxy-phenyl)-cyclohexane-1,3-diol hydrochloride] |  |  | Time point of peak effect p. appl. (rats [1]; A alone, i.v., timepoint of first measurement): 15 min; ED50 (rats [1]; iv, i.v., 15 min p. appl. (peak effect), read-out: ED50 [mg/kg] of A alone): 15.3 mg/kg; ED50 [mg/kg] of A alone (rats [1]; i.v., 15 min p. appl. (peak effect), hydrochloride): 15.3 mg/kg; Effect % MPE (time after administration of A) (rats [2]): 29 ± 6 (30 min) % MPE; ED25 [mg/kg] (confidence interval) of the individual substance (male Sprague Dawley rats): 9.15 mg/kg |
| NC(=O)N1c2ccccc2C=Cc2ccccc21 [Carbamazepine] | 30 | 15 |  |
| Nc1nnc(-c2cccc(Cl)c2Cl)c(N)n1 [Lamotrigine] | 35.3 | 15 |  |
| CCOC(=O)Nc1ccc(NCc2ccc(F)cc2)cc1N [Retigabine] | 5.09 | 15 |  |
| CC(C)C[C@H](CN)CC(=O)O [(S)-pregabaline] |  |  | ED25 [mg/kg] (confidence interval) of the individual substance (male Sprague Dawley rats): 18.8 mg/kg |
| COC[C@@H](NC(C)=O)C(=O)NCc1ccccc1 [Lacosamide] | 35.9 | 15 | ED50 [mg/kg] of the anticonvulsant alone (rats [1]; i.p., 15 min p. appl. (peak effect)): 35.9 mg/kg |
| CC[C@@H](C(N)=O)N1CCCC1=O [Levetiracetam] | 986 | 15 |  |
| NCC1(CC(=O)O)CCCCC1 [B, Gabapentin hydrochloride] |  |  | Effect % MPE (time after administration of A) (rats [2]): 16 ± 5 (30 min) % MPE |
